Assay results: US20060264460A1 (Wyeth, priority 2005, published 2006)
pIC50: −log10 of the molar value.

Target: T1, human Cot/Tpl2 kinase (Homo sapiens, UniProt P41279)
T1 construct: human Cot/Tpl2 kinase construct encoding residues 30-398; 6His (N); made in house; host or cells: Sf9 insect cells, baculovirus system (BD Biosciences)
Assay: Tpl2/Cot kinase assay: GST-MEK1 phosphorylation detected by ELISA (DELFIA Eu)
Type: biochemical
Conditions: 0.4 nM Tpl2, 35 nM GST-MEK1, 50 uM ATP, 1 h at 30° C.
Procedure, shortened: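 Substrate phosphorylation (GST-MEK1 Ser217/221) quantified by DELFIA europium ELISA, yielding IC50 values. Reaction: 1 h at 30° C, pH 7.2 MOPS buffer, 50 uM ATP, 35 nM GST-MEK1, 0.4 nM monomeric His-Tpl2 purified from Sf9 cells, compounds at 1% final DMSO; stopped with EDTA.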

T1 sequence (P41279 30-398): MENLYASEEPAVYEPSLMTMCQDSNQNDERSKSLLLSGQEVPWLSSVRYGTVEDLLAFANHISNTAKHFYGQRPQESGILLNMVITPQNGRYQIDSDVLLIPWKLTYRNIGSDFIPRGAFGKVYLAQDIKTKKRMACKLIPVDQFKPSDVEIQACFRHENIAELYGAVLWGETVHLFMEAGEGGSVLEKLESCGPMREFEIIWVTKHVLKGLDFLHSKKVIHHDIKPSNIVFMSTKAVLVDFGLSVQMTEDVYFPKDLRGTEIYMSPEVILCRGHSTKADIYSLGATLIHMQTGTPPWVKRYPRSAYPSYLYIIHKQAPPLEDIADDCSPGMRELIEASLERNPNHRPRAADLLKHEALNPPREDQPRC

Going from `N#Cc1cnc2c(Br)cc(NCc3cn(CCN4CCCC4)nn3)cc2c1Nc1ccc(F)c(Cl)c1` [Example 308, 8-Bromo-4-(3-chloro-4-fluoro-phenylamino)-6-{[1-(2-pyrrolidin-1-yl-ethyl)-1H-[1,2,3]triazol-4-ylmethyl]-amino}-quinoline-3-carbonitrile] to `CC(C)c1nc[nH]c1CNc1cc(Cl)c2ncc(C#N)c(Nc3ccc(F)c(Cl)c3)c2c1` [Example 214, 8-chloro-4-[(3-chloro-4-fluorophenyl)amino]-6-{[(4-isopropyl-1H-imidazol-5-yl)methyl]amino}quinoline-3-carbonitrile], the pIC50 rises from 7.55 to 7.80 (0.25 log units). The second is the more potent here.

First: CC(C)(C)OC(=O)COc1ccc(Br)cc1CNc1ccc2ncc(C#N)c(Nc3ccc(F)c(Cl)c3)c2c1 [Example 42]
Second: N#Cc1cnc2ccc(NCc3cccc(F)c3)cc2c1Nc1ccc(F)c(Cl)c1 [Example 145, 6-(3-fluorobenzylamino)-4-(3-chloro-4-fluorophenylamino)quinoline-3-carbonitrile]
The pIC50 of the first is 1.11 log units lower: 4.57 for the first, 5.68 for the second. The second is the more potent here.

First: N#Cc1cnc2ccc(NCc3cccc(C(F)(F)F)c3)cc2c1Nc1ccc(F)c(Cl)c1 [Example 149, 6-(3-(trifluoromethyl)benzylamino)-4-(3-chloro-4-fluorophenylamino)quinoline-3-carbonitrile]
Second: N#Cc1cccc(CNc2ccc3ncc(C#N)c(Nc4ccc(F)c(Cl)c4)c3c2)c1 [Example 10, 4-(3-Chloro-4-fluoro-phenylamino)-6-(3-cyano-benzylamino)-quinoline-3-carbonitrile]
The pIC50 of the first is 0.88 log units lower: 5.82 for the first, 6.70 for the second. The second is the more potent here.

Going from `CC(C)(C)OC(=O)N1CCC(NC(=O)Cn2ccnc2CNc2ccc3ncc(C#N)c(Nc4ccc(F)c(Cl)c4)c3c2)CC1` [Example 142, tert-butyl 4-(2-(2-((4-(3-chloro-4-fluorophenylamino)-3-cyanoquinolin-6-ylamino)methyl)-1H-imidazol-1-yl)acetamido)piperidine-1-carboxylate] to `N#Cc1cnc2ccc(NCc3nccs3)cc2c1Nc1ccc(F)c(Cl)c1` [Example 8, 4-(3-Chloro-4-fluoro-phenylamino)-6-[(thiazol-2-ylmethyl)-amino]-quinoline-3-carbonitrile], the pIC50 rises from 5.74 to 7.51 (1.77 log units). The second is the more potent here.

First: CN(C)c1ccc(CNc2ccc3ncc(C#N)c(Nc4ccc(F)c(Cl)c4)c3c2)c(F)c1C#N [Example 20, 4-(3-Chloro-4-fluoro-phenylamino)-6-(3-cyano-4-dimethylamino-2-fluoro-benzylamino)-quinoline-3-carbonitrile]
Second: CCOC(=O)CNc1ccc2ncc(C#N)c(Nc3ccc(F)c(Cl)c3)c2c1 [Example 174, Ethyl 2-(4-(3-chloro-4-fluorophenylamino)-3-cyanoquinolin-6-ylamino)acetate]
The pIC50 of the first is 0.75 log units higher: 6.21 for the first, 5.46 for the second.

Compared with `CN(C)C(=O)c1cc(NCc2ccco2)cc2c(Nc3ccc(F)c(Cl)c3)c(C#N)cnc12` [Example 84, 4-(3-chloro-4-fluorophenylamino)-3-cyano-6-(furan-2-ylmethylamino)-N,N-dimethylquinoline-8-carboxamide], `Cc1cc(CNc2cc(C(=O)N(C)C)c3ncc(C#N)c(Nc4ccc(F)c(Cl)c4)c3c2)n(C)n1` [Example 90, 4-(3-chloro-4-fluorophenylamino)-3-cyano-6-((1,3-dimethyl-1-H-pyrazol-5-yl)methylamino)-N, N-dimethylquinoline-8-carboxamide] is higher in pIC50: under 4.40 for the first, 5.77 for the second. The second is the more potent here.

Work on `N#Cc1cnc2ccc(NCc3cnc[nH]3)cc2c1Nc1ccncc1` [Example 264, 6-[(1H-imidazol-5-ylmethyl)amino]-4-(pyridin-4-ylamino)quinoline-3-carbonitrile] yielded a pIC50 of 5.60.

Same assay, conditions: Table 2; Tpl2/Cot kinase, GST-MEK1 substrate, 50 uM ATP

Compared with `N#Cc1cnc2c(Br)cc(NCc3n[nH]c4c3CCCC4)cc2c1Nc1ccc(F)c(Cl)c1` [Example 448], `N#Cc1cnc2c(Br)cc(NCc3cn(CCC4CCNCC4)nn3)cc2c1Nc1ccc(F)c(Cl)c1` [Example 517] is 0.62 log units higher in pIC50: 6.43 for the first, 7.05 for the second.

First: C#Cc1cccc(Nc2c(C#N)cnc3ccc(NCCN4CCOCC4)cc23)c1 [Example 357]
Second: N#Cc1cnc2ccc(NCCN3CCOCC3)cc2c1Sc1ccc(F)c(Cl)c1 [Example 358]
The pIC50 of the first is higher: 5.89 for the first, under 4.40 for the second. The first is the more potent here.

Going from `N#Cc1cnc2c(Br)cc(NCc3cccnc3)cc2c1Nc1cccc(Cl)c1` [Example 374] to `N#Cc1cnc2c(Br)cc(NCc3cn(-c4ccncc4)nn3)cc2c1Nc1ccc(F)c(Cl)c1` [Example 559], the pIC50 rises from 7.44 to 8.26 (0.82 log units). The second is the more potent here.

First: COCc1nc(CNc2cc(Cl)c3ncc(C#N)c(Nc4ccc(F)c(Cl)c4)c3c2)c[nH]1 [Example 432]
Second: N#Cc1cnc2c(Cl)cc(NCC(=O)NCCCN3CCOCC3)cc2c1Nc1ccc(F)c(Cl)c1 [Example 604]
The pIC50 of the first is higher: 6.59 for the first, under 5.52 for the second.

`Fc1ccc(Nc2ncncc2-c2ccccc2NCc2cnc[nH]2)cc1Cl` [Example 536] and `CC(C)(C)OC(=O)N1CCC(Nc2ccc3ncc(C#N)c(Nc4ccc(F)c(Cl)c4)c3c2)CC1` [Example 379] cannot be ordered by pIC50: under 5.52 for the first, under 4.40 for the second.

Same assay, conditions: Tpl2/Cot kinase, GST-MEK1 substrate, 50 uM ATP

Compared with `CN(CCn1cc(CNc2cc(Br)c3ncc(C#N)c(Nc4ccc(F)c(Cl)c4)c3c2)nn1)C(=O)OC(C)(C)C` [Example 678], `N#Cc1cnc2c(Cl)cc(NCc3cn(CCCO)nn3)cc2c1Nc1ccc(F)c(Cl)c1` [Example 751] is 1.27 log units higher in pIC50: 7.17 for the first, 8.44 for the second. The second is the more potent here.

Going from `N#Cc1cnc2c(Cl)cc(NCc3cncn3CCN3CCOCC3)cc2c1Nc1ccc(F)c(Cl)c1` [Example 671] to `CC(=O)N1CCC(CCn2cc(CNc3cc(Cl)c4ncc(C#N)c(Nc5ccc(F)c(Cl)c5)c4c3)nn2)CC1` [Example 832], the pIC50 rises from 7.21 to 8.92 (1.71 log units).

Going from `N#Cc1cnc2c(Br)cc(NCc3cn(CCCN4CCCNCC4)nn3)cc2c1Nc1ccc(F)c(Cl)c1` [Example 766] to `CN(C)CCNC(=O)Cn1cc(CNc2cc(Cl)c3ncc(C#N)c(Nc4ccc(F)c(Cl)c4)c3c2)nn1` [Example 818], the pIC50 rises from 7.37 to 8.17 (0.80 log units).

Compared with `N#Cc1cnc2c(Cl)cc(NCC(O)CO)cc2c1Nc1ccc(F)c(Cl)c1` (stereo not shown) [Example 797], `N#Cc1cnc2c(Cl)cc(NCC3CC3C(=O)O)cc2c1Nc1ccc(F)c(Cl)c1` (stereo not shown) [Example 886] is 0.43 log units higher in pIC50: 6.23 for the first, 6.66 for the second. The second is the more potent here.

First: Cc1ncccc1Cn1cc(CNc2cc(Cl)c3ncc(C#N)c(Nc4ccc(F)c(Cl)c4)c3c2)nn1 [Example 840]
Second: N#Cc1cnc2c(Br)cc(NCc3cn(Cc4ccccn4)cn3)cc2c1Nc1ccc(F)c(Cl)c1 [Example 785]
The pIC50 of the first is 0.53 log units higher: 8.00 for the first, 7.47 for the second. The first is the more potent here.

Compared with `N#Cc1cnc2c(Cl)cc(NCC3CCCN(C(=O)CN4CCCCCC4)C3)cc2c1Nc1ccc(F)c(Cl)c1` (stereo not shown) [Example 903], `N#Cc1cnc2c(Cl)cc(NCCNS(=O)(=O)c3ccccc3)cc2c1Nc1ccc(F)c(Cl)c1` [Example 854] is 0.50 log units lower in pIC50: 6.21 for the first, 5.71 for the second. The first is the more potent here.

In the case of `COCCCc1nc[nH]c1CNc1cc(Br)c2ncc(C#N)c(Nc3ccc(F)c(Cl)c3)c2c1` [Example 683], the pIC50 was 7.21.

Same assay, conditions: Tpl2/Cot kinase, GST-MEK1 substrate, 50 uM ATP, 1 h at 30° C.; Table 2

First: N#Cc1cnc2c(Cl)cc(NCc3cn(C4CCN(C[C@@H](O)[C@H](O)CO)CC4)nn3)cc2c1Nc1ccc(F)c(Cl)c1 [Example 991]
Second: N#Cc1cnc2c(Cl)cc(NC[C@H]3C[C@H](O)CO3)cc2c1Nc1ccc(F)c(Cl)c1 [Example 932]
The pIC50 of the first is 1.70 log units higher: 8.09 for the first, 6.39 for the second. The first is the more potent here.

Going from `N#Cc1cnc2c(Cl)cc(NCc3cc(Br)cs3)cc2c1Nc1ccc(F)c(Cl)c1` [Example 1004] to `N#Cc1cnc2c(Cl)cc(NCC3CCCN(C(=O)CNc4cccnc4)C3)cc2c1Nc1ccc(F)c(Cl)c1` (stereo not shown) [Example 923], the pIC50 rises from under 5.52 to 6.25. The second is the more potent here.
